Reference: patent publication US20250280828A1, “FUNGICIDAL COMPOSITIONS” (SYNGENTA CROP PROTECTION AG, priority 2020, published 2025)

Test system: Phakopsora pachyrhizi
Experiment: Preventative control against Phakopsora pachyrhizi (Asian soybean rust) / soybean / leaf disc
Assay type: in vivo
Conditions: foliar, evaluation 11 to 14 days after inoculation, read-out: Combined inhibition (observed); for inhibition at 0.4 g/ha: single active ingredient at 0.4 g/ha; for inhibition at 0.8 g/ha: single active ingredient at 0.8 g/ha
Experimental: Whole soybean plants are treated with the recited compositions of active ingredients four weeks after planting. One day after spraying application leaf discs are cut from the first trifoliate leaf. Five repetitions at each rate are conducted. The leaf discs are inoculated with Phakopsora pachyrhizi one day after treatment. Evaluation of the leaf discs is conducted 11 to 14 days after inoculation and the biological activity is derived from the relation of the treated compared to untreated, infested check plants. The rates of the active ingredients used are given in Tables 1 to 6 as g active ingredient (a.i.)/ha. Results from the tests outlined above are shown below in Tables 1 to 6. […] According to COLBY, in mathematical terms the synergism factor SF corresponds to O/E. In the agricultural practice an SF of […] indicates significant improvement over the purely complementary addition of activities (expected activity), while an SF of ≤0.9 in the practical application routine signals a loss of activity compared to the expected activity.

SMILES | inhibition at 0.2 g/ha (single active ingredient at 0.2 g/ha) [%] | inhibition at 0.4 g/ha [%] | inhibition at 0.8 g/ha [%]
CCC(=O)Oc1c(OC)ccnc1C(=O)N[C@@H](C)C(=O)O[C@@H](C)[C@@H](C)c1ccccc1C [A.03, [(1S,2S)-1-methyl-2-(o-tolyl)propyl](2S)-2-[(4-methoxy-3-propanoyloxy-pyridine-2-carbonyl)amino]propanoate] | 0 | 10 | 42
CON(Cc1ccc(-c2noc(C(F)(F)F)n2)cc1)C(=O)C1CC1 [B.01, N-methoxy-N-[[4-[5-(trifluoromethyl)-1,2,4-oxadiazol-3-yl]phenyl]methyl]cyclopropanecarboxamide] | – | – | 65
COC(C)C(=O)N(Cc1ccc(-c2noc(C(F)(F)F)n2)cc1)OC (stereo not shown) [B.02, N,2-dimethoxy-N-[[4-[5-(trifluoromethyl)-1,2,4-oxadiazol-3-yl]phenyl]methyl]propanamide] | – | 64 | –
CCN(Cc1ccc(-c2noc(C(F)(F)F)n2)cc1)C(=O)C(C)C [B.03, N-ethyl-2-methyl-N-[[4-[5-(trifluoromethyl)-1,2,4-oxadiazol-3-yl]phenyl]methyl]propanamide] | – | 21 | 55
CNC(=O)N(Cc1ccc(-c2noc(C(F)(F)F)n2)cc1)OC [B.04, 1-methoxy-3-methyl-1-[[4-[5-(trifluoromethyl)-1,2,4-oxadiazol-3-yl]phenyl]methyl]urea] | – | 44 | –
CCNC(=O)N(Cc1ccc(-c2noc(C(F)(F)F)n2)cc1)OC [B.06, 3-ethyl-1-methoxy-1-[[4-[5-(trifluoromethyl)-1,2,4-oxadiazol-3-yl]phenyl]methyl]urea] | – | 22 | –
CCOC(=O)c1cnn(Cc2ccc(-c3noc(C(F)(F)F)n3)cc2)c1 [B.10, ethyl 1-[[4-[5-(trifluoromethyl)-1,2,4-oxadiazol-3-yl]phenyl]methyl]pyrazole-4-carboxylate] | – | 55 | –
